Reference: ChEMBL document CHEMBL1156312, “Comparison of the antiplasmodial and falcipain-2 inhibitory activity of beta-amino alcohol thiolactone-chalcone and isatin-chalcone hybrids” (Bioorg Med Chem Lett, 2010)

Assays:
[1] = tested on: Plasmodium falciparum; experiment: Antimicrobial activity against chloroquine-resistant Plasmodium falciparum W2; assay type: functional, organism-based
[2] = Inhibition of recombinant Plasmodium falciparum falcipain-2

COc1ccc(/C=C/C(=O)c2ccccc2OCc2cn(CC(O)CN3C(=O)C(=O)c4cc(Cl)ccc43)nn2)c(OC)c1 (stereo not given)
IC50 [1]: 15 µM
IC50 [2]: 2.09 µM

COc1ccc(/C=C/C(=O)c2ccc(OCc3cn(CC(O)COC4=C(C)C(=O)SC4C)nn3)cc2)c(OC)c1OC (stereo not given)
IC50 [1]: > 100 µM
IC50 [2]: 0.81 µM

COc1ccc(C(=O)/C=C/c2cccc(OCc3cn(CC(O)COC4=C(C)C(=O)SC4C)nn3)c2)c(OC)c1 (stereo not given)
IC50 [1]: > 100 µM
IC50 [2]: 1.64 µM

COc1ccc(/C=C/C(=O)c2cccc(OCc3cn(CC(O)COC4=C(C)C(=O)SC4C)nn3)c2)c(OC)c1 (stereo not given)
IC50 [1]: > 100 µM
IC50 [2]: 3.51 µM

COc1ccc(/C=C/C(=O)c2ccccc2OCc2cn(CC(O)CN3C(=O)C(=O)c4cc(Cl)ccc43)nn2)c(OC)c1OC (stereo not given)
IC50 [1]: 15.3 µM
IC50 [2]: 6.21 µM

COc1ccc(C(=O)/C=C/c2ccccc2OCc2cn(CC(O)CN3C(=O)C(=O)c4cc(Cl)ccc43)nn2)c(OC)c1OC (stereo not given)
IC50 [1]: 90.5 µM
IC50 [2]: 6.1 µM

O=C1Nc2ccccc2C1=O [ISATIN]
IC50 [1]: > 100 µM
IC50 [2]: > 20 µM

COC1(OC)C(=O)N(CC(O)CN=[N+]=[N-])c2ccc(Cl)cc21 (stereo not given)
IC50 [1]: > 100 µM
IC50 [2]: > 20 µM

COc1ccc(/C=C/C(=O)c2ccccc2OCc2cn(CC(O)COC3=C(C)C(=O)SC3C)nn2)cc1 (stereo not given)
IC50 [1]: > 100 µM
IC50 [2]: 2.64 µM

COc1ccc(/C=C/C(=O)c2ccc(OCc3cn(CC(O)CN4C(=O)C(=O)c5cc(Cl)ccc54)nn3)cc2)c(OC)c1 (stereo not given)
IC50 [1]: 18.3 µM
IC50 [2]: 14.5 µM

COc1ccc(C(=O)/C=C/c2ccc(OCc3cn(CC(O)COC4=C(C)C(=O)SC4C)nn3)cc2)cc1 (stereo not given)
IC50 [1]: > 100 µM
IC50 [2]: 3.12 µM

COc1ccc(/C=C/C(=O)c2ccc(OCc3cn(CC(O)COC4=C(C)C(=O)SC4C)nn3)cc2)c(OC)c1 (stereo not given)
IC50 [1]: 28.5 µM
IC50 [2]: 3.1 µM

COc1ccc(/C=C/C(=O)c2cccc(OCc3cn(CC(O)CN4C(=O)C(=O)c5cc(Cl)ccc54)nn3)c2)cc1 (stereo not given)
IC50 [1]: 9.91 µM
IC50 [2]: 3.57 µM

COc1ccc(C(=O)/C=C/c2ccc(OCc3cn(CC(O)COC4=C(C)C(=O)SC4C)nn3)cc2)c(OC)c1OC (stereo not given)
IC50 [1]: > 100 µM
IC50 [2]: 5.04 µM

COc1ccc(C(=O)/C=C/c2cccc(OCc3cn(CC(O)COC4=C(C)C(=O)SC4C)nn3)c2)cc1 (stereo not given)
IC50 [1]: > 100 µM
IC50 [2]: 2.43 µM

COc1ccc(/C=C/C(=O)c2ccc(OCc3cn(CC(O)COC4=C(C)C(=O)SC4C)nn3)cc2)cc1 (stereo not given)
IC50 [1]: > 100 µM
IC50 [2]: 6.08 µM

COc1ccc(C(=O)/C=C/c2cccc(OCc3cn(CC(O)CN4C(=O)C(=O)c5cc(Cl)ccc54)nn3)c2)c(OC)c1 (stereo not given)
IC50 [1]: 6.8 µM
IC50 [2]: 3.17 µM

COc1ccc(/C=C/C(=O)c2cccc(OCc3cn(CC(O)CN4C(=O)C(=O)c5cc(Cl)ccc54)nn3)c2)c(OC)c1 (stereo not given)
IC50 [1]: 10.6 µM
IC50 [2]: 2.95 µM

COc1ccc(C(=O)/C=C/c2ccccc2OCc2cn(CC(O)COC3=C(C)C(=O)SC3C)nn2)cc1 (stereo not given)
IC50 [1]: > 100 µM
IC50 [2]: 2.31 µM

COc1ccc(C(=O)/C=C/c2cccc(OCc3cn(CC(O)COC4=C(C)C(=O)SC4C)nn3)c2)c(OC)c1OC (stereo not given)
IC50 [1]: > 100 µM
IC50 [2]: 2 µM

COc1ccc(/C=C/C(=O)c2cccc(OCc3cn(CC(O)COC4=C(C)C(=O)SC4C)nn3)c2)c(OC)c1OC (stereo not given)
IC50 [1]: > 100 µM
IC50 [2]: 0.68 µM

COc1ccc(/C=C/C(=O)c2cccc(OCc3cn(CC(O)COC4=C(C)C(=O)SC4C)nn3)c2)cc1 (stereo not given)
IC50 [1]: > 100 µM
IC50 [2]: 3.69 µM

CC1=C(OCC(O)CN=[N+]=[N-])C(C)SC1=O (stereo not given)
IC50 [1]: > 100 µM
IC50 [2]: > 20 µM

COc1ccc(C(=O)/C=C/c2ccc(OCc3cn(CC(O)CN4C(=O)C(=O)c5cc(Cl)ccc54)nn3)cc2)c(OC)c1OC (stereo not given)
IC50 [1]: 16.6 µM
IC50 [2]: 11 µM

COc1ccc(C(=O)/C=C/c2ccccc2OCc2cn(CC(O)CN3C(=O)C(=O)c4cc(Cl)ccc43)nn2)c(OC)c1 (stereo not given)
IC50 [1]: 15.6 µM
IC50 [2]: > 20 µM

COc1ccc(/C=C/C(=O)c2ccc(OCc3cn(CC(O)CN4C(=O)C(=O)c5cc(Cl)ccc54)nn3)cc2)c(OC)c1OC (stereo not given)
IC50 [1]: 25.1 µM
IC50 [2]: > 20 µM

C=C/C(C)=C/[C@@]1(C)SC(=O)C(C)=C1O [THIOLACTOMYCIN]
IC50 [1]: > 100 µM
IC50 [2]: > 20 µM

COc1ccc(C(=O)/C=C/c2cccc(OCc3cn(CC(O)CN4C(=O)C(=O)c5cc(Cl)ccc54)nn3)c2)c(OC)c1OC (stereo not given)
IC50 [1]: 11.5 µM
IC50 [2]: 2.18 µM

COc1ccc(/C=C/C(=O)c2ccccc2OCc2cn(CC(O)CN3C(=O)C(=O)c4cc(Cl)ccc43)nn2)cc1 (stereo not given)
IC50 [1]: 16 µM
IC50 [2]: 7.79 µM

COc1ccc(C(=O)/C=C/c2cccc(OCc3cn(CC(O)CN4C(=O)C(=O)c5cc(Cl)ccc54)nn3)c2)cc1 (stereo not given)
IC50 [1]: 10.3 µM
IC50 [2]: 5.75 µM

COc1ccc(C(=O)/C=C/c2ccc(OCc3cn(CC(O)CN4C(=O)C(=O)c5cc(Cl)ccc54)nn3)cc2)c(OC)c1 (stereo not given)
IC50 [2]: 9.73 µM

COc1ccc(C(=O)/C=C/c2ccccc2OCc2cn(CC(O)CN3C(=O)C(=O)c4cc(Cl)ccc43)nn2)cc1 (stereo not given)
IC50 [1]: 25.4 µM
IC50 [2]: > 20 µM

COc1ccc(C(=O)/C=C/c2ccc(OCc3cn(CC(O)COC4=C(C)C(=O)SC4C)nn3)cc2)c(OC)c1 (stereo not given)
IC50 [1]: > 100 µM
IC50 [2]: 1.54 µM

COc1ccc(C(=O)/C=C/c2ccc(OCc3cn(CC(O)CN4C(=O)C(=O)c5cc(Cl)ccc54)nn3)cc2)cc1 (stereo not given)
IC50 [1]: 10.8 µM
IC50 [2]: 10.6 µM

COc1ccc(/C=C/C(=O)c2ccccc2OCc2cn(CC(O)COC3=C(C)C(=O)SC3C)nn2)c(OC)c1 (stereo not given)
IC50 [1]: > 100 µM
IC50 [2]: 2.14 µM

COc1ccc(C(=O)/C=C/c2ccccc2OCc2cn(CC(O)COC3=C(C)C(=O)SC3C)nn2)c(OC)c1OC (stereo not given)
IC50 [1]: > 100 µM
IC50 [2]: 1.14 µM

COc1ccc(/C=C/C(=O)c2ccc(OCc3cn(CC(O)CN4C(=O)C(=O)c5cc(Cl)ccc54)nn3)cc2)cc1 (stereo not given)
IC50 [1]: 15.9 µM
IC50 [2]: 14.9 µM

CCN(CC)CCCC(C)Nc1ccnc2cc(Cl)ccc12 (stereo not given) [CHLOROQUINE]
IC50 [2]: 0.0694 µM

CC1=C(O)SC(C)C1=O (stereo not given) [THIOLACTONE]
IC50 [1]: > 100 µM
IC50 [2]: > 20 µM

COc1ccc(C(=O)/C=C/c2ccccc2OCc2cn(CC(O)COC3=C(C)C(=O)SC3C)nn2)c(OC)c1 (stereo not given)
IC50 [1]: > 100 µM
IC50 [2]: 2.08 µM

COc1ccc(/C=C/C(=O)c2cccc(OCc3cn(CC(O)CN4C(=O)C(=O)c5cc(Cl)ccc54)nn3)c2)c(OC)c1OC (stereo not given)
IC50 [1]: 16.7 µM
IC50 [2]: 2.57 µM
